In PubChem BioAssay (NCI):
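Cultured in 96-well plates, cells were exposed to test compound for 48 hours across five concentrations. GI50 is the concentration that inhibits growth by half. TGI denotes the concentration required for complete inhibition of growth.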

Assays:
Assay in all cases: inhibition of tumour cell growth, NCI panel, 48 h
786-0 renal = tested on: 786-0 renal
A498 renal = tested on: A498 renal
A549 NSCLC = tested on: A549 NSCLC
ACHN renal = tested on: ACHN renal
BT-549 breast = tested on: BT-549 breast
CAKI-1 renal = tested on: CAKI-1 renal
COLO 205 colon = tested on: COLO 205 colon
DU-145 prostate = tested on: DU-145 prostate
EKVX NSCLC = tested on: EKVX NSCLC
HCC-2998 colon = tested on: HCC-2998 colon
HCT-116 colon = tested on: HCT-116 colon
HCT-15 colon = tested on: HCT-15 colon
HL-60(TB) leukemia = tested on: HL-60(TB) leukemia
HOP-62 NSCLC = tested on: HOP-62 NSCLC
HOP-92 NSCLC = tested on: HOP-92 NSCLC
HT29 colon = tested on: HT29 colon
K-562 leukemia = tested on: K-562 leukemia
KM12 colon = tested on: KM12 colon
M14 melanoma = tested on: M14 melanoma
MCF7 breast = tested on: MCF7 breast
MDA-MB-435 = tested on: MDA-MB-435
MOLT-4 leukemia = tested on: MOLT-4 leukemia
NCI-H226 lung = tested on: NCI-H226 lung
NCI-H460 lung = tested on: NCI-H460 lung
NCI-H522 lung = tested on: NCI-H522 lung
NCI/ADR-RES ovarian = tested on: NCI/ADR-RES ovarian
OVCAR-3 ovarian = tested on: OVCAR-3 ovarian
OVCAR-4 ovarian = tested on: OVCAR-4 ovarian
OVCAR-5 ovarian = tested on: OVCAR-5 ovarian
OVCAR-8 ovarian = tested on: OVCAR-8 ovarian
PC-3 prostate = tested on: PC-3 prostate
RPMI-8226 leukemia = tested on: RPMI-8226 leukemia
RXF 393 renal = tested on: RXF 393 renal
SF-268 CNS = tested on: SF-268 CNS
SF-295 CNS = tested on: SF-295 CNS
SF-539 CNS = tested on: SF-539 CNS
SK-MEL-2 melanoma = tested on: SK-MEL-2 melanoma
SK-MEL-28 melanoma = tested on: SK-MEL-28 melanoma
SK-MEL-5 melanoma = tested on: SK-MEL-5 melanoma
SK-OV-3 ovarian = tested on: SK-OV-3 ovarian
SN12C renal = tested on: SN12C renal
SNB-75 CNS = tested on: SNB-75 CNS
SR leukemia = tested on: SR leukemia
SW-620 colon = tested on: SW-620 colon
T-47D breast = tested on: T-47D breast
TK-10 renal = tested on: TK-10 renal
U251 CNS = tested on: U251 CNS
UACC-257 melanoma = tested on: UACC-257 melanoma
UO-31 renal = tested on: UO-31 renal

SMILES: Nc1nc(N)c2c(n1)NC(c1ccc(F)cc1)CC(c1ccc(Nc3nc(NCCO)nc(Nc4ccc(Cl)cc4)n3)cc1)=N2 (stereo not drawn)
- GI50 (786-0 renal): 1.36 µM
- TGI (786-0 renal): 3.11 µM
- GI50 (A498 renal): 3.72 µM
- TGI (A498 renal): 15.3 µM
- GI50 (A549 NSCLC): 3.12 µM
- TGI (A549 NSCLC): > 100 µM
- GI50 (ACHN renal): 3.22 µM
- TGI (ACHN renal): 17.3 µM
- GI50 (BT-549 breast): 1.56 µM
- TGI (BT-549 breast): 3.17 µM
- GI50 (CAKI-1 renal): 6.14 µM
- TGI (CAKI-1 renal): 39.6 µM
- GI50 (COLO 205 colon): 1.49 µM
- TGI (COLO 205 colon): 2.94 µM
- GI50 (DU-145 prostate): 1.75 µM
- TGI (DU-145 prostate): 3.5 µM
- GI50 (EKVX NSCLC): 1.66 µM
- TGI (EKVX NSCLC): 5.35 µM
- GI50 (HCC-2998 colon): 1.61 µM
- TGI (HCC-2998 colon): 3.05 µM
- GI50 (HCT-116 colon): 1.2 µM
- TGI (HCT-116 colon): 2.5 µM
- GI50 (HCT-15 colon): 1.03 µM
- TGI (HCT-15 colon): 2.84 µM
- GI50 (HL-60(TB) leukemia): 0.863 µM
- TGI (HL-60(TB) leukemia): 3.51 µM
- GI50 (HOP-62 NSCLC): 1.77 µM
- TGI (HOP-62 NSCLC): 4.3 µM
- GI50 (HOP-92 NSCLC): 1.25 µM
- TGI (HOP-92 NSCLC): 3.54 µM
- GI50 (HT29 colon): 1.42 µM
- TGI (HT29 colon): 3.15 µM
- GI50 (K-562 leukemia): 0.489 µM
- TGI (K-562 leukemia): > 100 µM
- GI50 (KM12 colon): 1.68 µM
- TGI (KM12 colon): 3.71 µM
- GI50 (M14 melanoma): 1.66 µM
- TGI (M14 melanoma): 3.3 µM
- GI50 (MCF7 breast): 0.956 µM
- TGI (MCF7 breast): 2.43 µM
- GI50 (MDA-MB-435): 1.7 µM
- TGI (MDA-MB-435): 3.55 µM
- GI50 (MOLT-4 leukemia): 0.532 µM
- TGI (MOLT-4 leukemia): 3.47 µM
- GI50 (NCI-H226 lung): 2.49 µM
- TGI (NCI-H226 lung): 7.11 µM
- GI50 (NCI-H460 lung): 1.71 µM
- TGI (NCI-H460 lung): 3.63 µM
- GI50 (NCI-H522 lung): 1.43 µM
- TGI (NCI-H522 lung): 2.97 µM
- GI50 (NCI/ADR-RES ovarian): 7.73 µM
- TGI (NCI/ADR-RES ovarian): > 100 µM
- GI50 (OVCAR-3 ovarian): 1.58 µM
- TGI (OVCAR-3 ovarian): 3.28 µM
- GI50 (OVCAR-4 ovarian): 1.93 µM
- TGI (OVCAR-4 ovarian): 6.43 µM
- GI50 (OVCAR-5 ovarian): 5.1 µM
- TGI (OVCAR-5 ovarian): 24.4 µM
- GI50 (OVCAR-8 ovarian): 1.16 µM
- TGI (OVCAR-8 ovarian): 2.81 µM
- GI50 (PC-3 prostate): 1.72 µM
- TGI (PC-3 prostate): 11.4 µM
- GI50 (RPMI-8226 leukemia): 1.01 µM
- TGI (RPMI-8226 leukemia): 3.24 µM
- GI50 (RXF 393 renal): 1.17 µM
- TGI (RXF 393 renal): 2.63 µM
- GI50 (SF-268 CNS): 2.85 µM
- TGI (SF-268 CNS): 12.3 µM
- GI50 (SF-295 CNS): 1.96 µM
- TGI (SF-295 CNS): 3.75 µM
- GI50 (SF-539 CNS): 1.56 µM
- TGI (SF-539 CNS): 3.15 µM
- GI50 (SK-MEL-2 melanoma): 1.67 µM
- TGI (SK-MEL-2 melanoma): 3.1 µM
- GI50 (SK-MEL-28 melanoma): 1.7 µM
- TGI (SK-MEL-28 melanoma): 3.18 µM
- GI50 (SK-MEL-5 melanoma): 1.46 µM
- TGI (SK-MEL-5 melanoma): 2.78 µM
- GI50 (SK-OV-3 ovarian): 12.9 µM
- TGI (SK-OV-3 ovarian): 25.5 µM
- GI50 (SN12C renal): 2.08 µM
- TGI (SN12C renal): 5.19 µM
- GI50 (SNB-75 CNS): 3.35 µM
- TGI (SNB-75 CNS): 16 µM
- GI50 (SR leukemia): 0.672 µM
- TGI (SR leukemia): 4.75 µM
- GI50 (SW-620 colon): 1.6 µM
- TGI (SW-620 colon): 3.27 µM
- GI50 (T-47D breast): 1.27 µM
- TGI (T-47D breast): 3.2 µM
- GI50 (TK-10 renal): 4.61 µM
- TGI (TK-10 renal): 15.5 µM
- GI50 (U251 CNS): 1.37 µM
- TGI (U251 CNS): 2.73 µM
- GI50 (UACC-257 melanoma): 1.85 µM
- TGI (UACC-257 melanoma): 3.52 µM
- GI50 (UO-31 renal): 3.07 µM
- TGI (UO-31 renal): 20.4 µM
